Results taken from BindingDB's records for patent US20240360157 (Biogen Ma, 2024).

What was measured:
Assay in all cases: ADP-Glo Kinase Assay
[1] = target: T1, Tyrosine-protein kinase JAK3 [3-974] (UniProt P52333)
T1 construct: 3-974
T1 sequence (P52333 whole entry): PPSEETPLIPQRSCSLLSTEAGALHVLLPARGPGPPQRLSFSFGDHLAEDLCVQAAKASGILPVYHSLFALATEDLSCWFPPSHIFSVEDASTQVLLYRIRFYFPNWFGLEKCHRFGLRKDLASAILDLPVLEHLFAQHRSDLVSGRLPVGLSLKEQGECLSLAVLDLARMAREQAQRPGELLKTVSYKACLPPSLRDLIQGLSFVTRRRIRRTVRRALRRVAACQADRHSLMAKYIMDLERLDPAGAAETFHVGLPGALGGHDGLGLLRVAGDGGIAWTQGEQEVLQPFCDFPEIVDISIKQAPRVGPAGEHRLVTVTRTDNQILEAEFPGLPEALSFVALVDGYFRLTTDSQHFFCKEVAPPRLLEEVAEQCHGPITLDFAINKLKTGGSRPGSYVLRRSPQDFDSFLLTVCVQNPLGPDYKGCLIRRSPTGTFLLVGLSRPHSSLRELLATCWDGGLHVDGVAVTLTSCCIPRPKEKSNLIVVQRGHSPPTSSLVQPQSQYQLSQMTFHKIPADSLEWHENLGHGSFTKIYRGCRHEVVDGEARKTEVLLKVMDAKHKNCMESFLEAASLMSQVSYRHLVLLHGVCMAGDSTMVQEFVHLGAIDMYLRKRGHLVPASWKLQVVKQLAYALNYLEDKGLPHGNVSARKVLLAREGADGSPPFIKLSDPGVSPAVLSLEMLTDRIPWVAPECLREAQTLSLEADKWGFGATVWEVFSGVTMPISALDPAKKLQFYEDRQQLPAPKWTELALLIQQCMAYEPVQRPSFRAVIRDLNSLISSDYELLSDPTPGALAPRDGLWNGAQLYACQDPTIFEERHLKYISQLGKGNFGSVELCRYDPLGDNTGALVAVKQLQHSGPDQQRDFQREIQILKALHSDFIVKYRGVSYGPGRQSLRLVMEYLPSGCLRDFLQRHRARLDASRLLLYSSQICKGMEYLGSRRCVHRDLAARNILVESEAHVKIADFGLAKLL
Procedure: (§1) The kinase activity of recombinantly generated catalytic kinase (also known as JH1) domain of human JAK1, JAK2, JAK3 and TYK2 were evaluated in a plate-based assay using the ADP-Glo™ Kinase Assay platform. Specifically, 4 nM of recombinant JAK1 kinase domain is used to phosphorylate 50 μM of a JAK3-342 (sequence ALVDGYFRLTT) peptide in the presence of 35 μM ATP. Catalytic activities of recombinant JAK2, JAK3 and TYK2 kinase domain (0.2, 0.3 and 2 nM, respectively) are evaluated by the phosphorylation status of the JAK3-974 (50 μM; sequence LPLDKDYYVVR) peptide with the addition of ATP (15, 4 and 10 μM, respectively). The reactions proceed for 100 minutes and the catalytic activity is quantified by first depleting the unused ATP, converting the hydrolyzed ADP into ATP to generate luminescence in a luciferase reaction; which is the basis of the ADP-Glo platform. Compounds are tested at either 10 μM or 1 μM top concentration, 11 points of 3-fold dilution.

[2] = target: Tyrosine-protein kinase JAK1 (Homo sapiens, UniProt P23458)
Procedure: as §1

[3] = target: Non-receptor tyrosine-protein kinase TYK2 (Homo sapiens, UniProt P29597)
Procedure: as §1

[4] = target: Tyrosine-protein kinase JAK2 (Homo sapiens, UniProt O60674)
Procedure: as §1

Chain of Non-receptor tyrosine-protein kinase TYK2 (P29597 whole entry): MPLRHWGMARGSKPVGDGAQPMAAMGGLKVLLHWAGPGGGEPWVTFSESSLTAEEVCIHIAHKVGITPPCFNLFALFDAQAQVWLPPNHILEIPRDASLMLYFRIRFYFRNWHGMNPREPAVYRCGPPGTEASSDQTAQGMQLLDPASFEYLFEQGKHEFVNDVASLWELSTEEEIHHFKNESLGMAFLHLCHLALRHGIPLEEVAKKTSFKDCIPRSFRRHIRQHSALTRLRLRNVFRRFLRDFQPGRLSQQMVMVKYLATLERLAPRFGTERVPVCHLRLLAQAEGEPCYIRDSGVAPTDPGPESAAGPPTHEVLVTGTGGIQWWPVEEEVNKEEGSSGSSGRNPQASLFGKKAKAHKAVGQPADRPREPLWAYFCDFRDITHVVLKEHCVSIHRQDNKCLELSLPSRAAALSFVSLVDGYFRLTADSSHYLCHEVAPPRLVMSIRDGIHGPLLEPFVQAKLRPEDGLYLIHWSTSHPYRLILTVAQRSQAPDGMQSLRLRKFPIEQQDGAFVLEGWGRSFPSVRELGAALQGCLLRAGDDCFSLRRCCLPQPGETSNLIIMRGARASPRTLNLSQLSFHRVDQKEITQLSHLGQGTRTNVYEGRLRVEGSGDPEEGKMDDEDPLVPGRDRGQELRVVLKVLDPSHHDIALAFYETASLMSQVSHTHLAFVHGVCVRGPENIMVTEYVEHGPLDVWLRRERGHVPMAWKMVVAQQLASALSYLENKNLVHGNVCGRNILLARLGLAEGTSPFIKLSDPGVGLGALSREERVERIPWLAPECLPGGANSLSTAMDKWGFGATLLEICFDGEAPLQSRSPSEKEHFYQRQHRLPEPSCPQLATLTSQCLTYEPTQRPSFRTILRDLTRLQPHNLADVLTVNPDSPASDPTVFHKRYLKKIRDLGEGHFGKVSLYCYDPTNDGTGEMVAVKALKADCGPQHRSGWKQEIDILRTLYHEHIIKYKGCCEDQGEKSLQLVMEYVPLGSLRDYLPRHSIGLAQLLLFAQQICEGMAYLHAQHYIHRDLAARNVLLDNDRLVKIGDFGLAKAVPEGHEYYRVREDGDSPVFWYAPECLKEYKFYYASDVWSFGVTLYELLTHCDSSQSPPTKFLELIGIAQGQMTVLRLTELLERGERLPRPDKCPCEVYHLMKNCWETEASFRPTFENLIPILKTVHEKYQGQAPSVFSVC
Chain of Tyrosine-protein kinase JAK1 (P23458 whole entry): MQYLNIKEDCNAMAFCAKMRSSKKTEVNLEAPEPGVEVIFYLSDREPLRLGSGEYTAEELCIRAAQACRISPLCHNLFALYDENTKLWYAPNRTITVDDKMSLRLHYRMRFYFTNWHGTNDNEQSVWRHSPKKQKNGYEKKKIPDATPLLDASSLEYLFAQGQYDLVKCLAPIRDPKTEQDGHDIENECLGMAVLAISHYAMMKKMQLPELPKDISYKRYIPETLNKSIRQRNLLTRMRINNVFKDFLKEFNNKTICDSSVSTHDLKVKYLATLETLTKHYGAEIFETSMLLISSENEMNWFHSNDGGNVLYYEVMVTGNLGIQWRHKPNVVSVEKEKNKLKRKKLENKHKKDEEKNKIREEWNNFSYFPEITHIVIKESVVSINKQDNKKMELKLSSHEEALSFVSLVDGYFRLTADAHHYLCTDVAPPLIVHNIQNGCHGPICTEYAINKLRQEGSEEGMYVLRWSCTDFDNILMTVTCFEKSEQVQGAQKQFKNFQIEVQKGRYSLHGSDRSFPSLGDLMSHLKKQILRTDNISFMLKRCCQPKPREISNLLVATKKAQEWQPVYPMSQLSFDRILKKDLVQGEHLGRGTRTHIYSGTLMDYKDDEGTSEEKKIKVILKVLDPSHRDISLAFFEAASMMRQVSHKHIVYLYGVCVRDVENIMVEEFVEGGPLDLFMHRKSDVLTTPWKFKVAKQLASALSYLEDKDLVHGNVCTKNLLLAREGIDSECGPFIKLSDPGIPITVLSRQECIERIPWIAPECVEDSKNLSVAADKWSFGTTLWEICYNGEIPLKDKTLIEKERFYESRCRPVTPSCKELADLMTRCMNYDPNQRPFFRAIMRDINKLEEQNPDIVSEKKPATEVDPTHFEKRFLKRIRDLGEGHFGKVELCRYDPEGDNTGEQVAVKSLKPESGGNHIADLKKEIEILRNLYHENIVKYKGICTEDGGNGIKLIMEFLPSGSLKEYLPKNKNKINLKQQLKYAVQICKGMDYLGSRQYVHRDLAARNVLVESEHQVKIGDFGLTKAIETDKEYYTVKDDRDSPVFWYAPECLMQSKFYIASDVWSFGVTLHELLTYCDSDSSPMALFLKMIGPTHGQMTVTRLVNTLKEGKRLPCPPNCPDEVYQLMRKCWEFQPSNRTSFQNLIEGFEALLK
Chain of Tyrosine-protein kinase JAK2 (O60674 whole entry): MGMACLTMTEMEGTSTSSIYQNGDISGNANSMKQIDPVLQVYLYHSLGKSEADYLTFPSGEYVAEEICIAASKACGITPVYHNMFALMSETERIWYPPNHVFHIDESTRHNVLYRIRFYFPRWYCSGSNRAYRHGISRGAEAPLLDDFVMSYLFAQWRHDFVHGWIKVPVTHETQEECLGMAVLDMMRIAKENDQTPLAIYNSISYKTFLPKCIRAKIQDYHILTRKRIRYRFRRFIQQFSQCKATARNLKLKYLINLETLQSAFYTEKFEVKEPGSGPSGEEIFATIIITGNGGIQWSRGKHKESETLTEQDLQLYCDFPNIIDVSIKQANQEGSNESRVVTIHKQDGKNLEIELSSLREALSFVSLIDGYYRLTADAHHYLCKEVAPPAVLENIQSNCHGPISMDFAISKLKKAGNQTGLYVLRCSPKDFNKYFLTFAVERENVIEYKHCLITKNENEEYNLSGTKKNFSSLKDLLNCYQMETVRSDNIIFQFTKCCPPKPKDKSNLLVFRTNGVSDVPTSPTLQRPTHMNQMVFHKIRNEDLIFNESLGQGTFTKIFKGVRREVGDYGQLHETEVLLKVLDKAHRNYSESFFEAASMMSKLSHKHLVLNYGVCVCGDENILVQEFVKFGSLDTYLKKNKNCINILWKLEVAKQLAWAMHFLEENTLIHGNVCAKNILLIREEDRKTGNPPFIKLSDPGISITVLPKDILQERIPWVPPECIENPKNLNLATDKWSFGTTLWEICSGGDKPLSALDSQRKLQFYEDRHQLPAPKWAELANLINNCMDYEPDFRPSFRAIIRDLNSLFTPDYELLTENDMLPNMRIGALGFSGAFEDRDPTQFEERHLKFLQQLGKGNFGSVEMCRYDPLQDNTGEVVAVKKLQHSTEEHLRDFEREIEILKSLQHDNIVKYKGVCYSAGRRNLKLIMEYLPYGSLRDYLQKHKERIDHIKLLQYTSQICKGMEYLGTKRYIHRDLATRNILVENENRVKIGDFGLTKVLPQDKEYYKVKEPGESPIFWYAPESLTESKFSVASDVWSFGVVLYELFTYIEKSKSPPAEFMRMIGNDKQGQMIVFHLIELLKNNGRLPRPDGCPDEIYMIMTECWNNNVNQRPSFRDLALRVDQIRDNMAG

Row | SMILES | IC50 [1] [nM] | IC50 [2] [nM] | IC50 [3] [nM] | IC50 [4] [nM]
1 | Cn1cc(-c2cc3c(N4CC5CCC(C4)N5C(=O)[C@@H]4CC4(F)F)ccnc3[nH]2)cn1 [US20240360157, Example 239] | 114 | 18 | 0.2 | 8
2 | COc1cc(-c2cc3c(N4CC5CCC(C4)N5C(=O)[C@@H]4C[C@H]4F)ccnc3[nH]2)c(F)cn1 [US20240360157, Example 246] | 992 | 76 | 5.1 | 53
